Test [1] has as its system PEO1. Nature of the test: Cytotoxicity against human PEO1 cells assessed as inhibition of cell growth after 72 hrs by ATPlite assay. Type of test: functional, cell-based. The settings on record: PEO1, 72 h. In general terms: ATP-based viability assays read luminescence as a measure of living cells.
In test [2] the test system is PEO1. Nature of the test: Synergistic cytotoxicity against human PEO1 cells assessed as combination index at 44 uM after 72 hrs in presence of 0.1 uM of cisplatin by ATPlite assay. Type of test: functional.
Test [3] relates to PEO1. Nature of the test: Synergistic cytotoxicity against human PEO1 cells assessed as combination index at 44 uM after 72 hrs in presence of 1 uM of cisplatin by ATPlite assay. Format: functional.
Test [4] relates to PEO1. In words: Synergistic cytotoxicity against human PEO1 cells assessed as combination index at 44 uM after 72 hrs in presence of 2 uM of cisplatin by ATPlite assay. Type of test: functional.
Test [5] has as its system PEO1. Nature of the test: Synergistic cytotoxicity against human PEO1 cells assessed as combination index at 44 uM after 72 hrs in presence of 5 uM of cisplatin by ATPlite assay. Format: functional.
In test [6] the test system is PEO1. In words: Synergistic cytotoxicity against human PEO1 cells assessed as combination index at 44 uM after 72 hrs in presence of 10 uM of cisplatin by ATPlite assay. Type of test: functional.
Test [7] deals with PEO1. In words: Synergistic cytotoxicity against human PEO1 cells assessed as combination index at 44 uM after 72 hrs in presence of 1 uM of paclitaxel by ATPlite assay. Format: functional.
The subject of test [8] is PEO1. In words: Synergistic cytotoxicity against human PEO1 cells assessed as combination index at 44 uM after 72 hrs in presence of 10 uM of paclitaxel by ATPlite assay. Format: functional.
For test [9], the system named is PEO1. Nature of the test: Synergistic cytotoxicity against human PEO1 cells assessed as combination index at 44 uM after 72 hrs in presence of 100 uM of paclitaxel by ATPlite assay. Type of test: functional.
In test [10] the test system is PEO1. Nature of the test: Synergistic cytotoxicity against human PEO1 cells assessed as combination index at 44 uM after 72 hrs in presence of 1000 uM of paclitaxel by ATPlite assay. Type of test: functional.
The subject of test [11] is PEO1. Nature of the test: Synergistic cytotoxicity against human PEO1 cells assessed as combination index at 44 uM after 72 hrs in presence of 10000 uM of paclitaxel by ATPlite assay. Format: functional.

One may read the IC50 as the concentration that inhibits the measured activity by half.

As to `CC1=C(C#N)C(O)=NC(=O)/C1=C\c1ccc(-c2ccccc2)o1`, in the test with PEO1 [1], the half-maximal inhibitory concentration (IC50) was 44 µM. Also, the CI with PEO1 [2] worked out at 0.81; in the test with PEO1 [3], 1.08; with PEO1 [4], 1.01; in the test with PEO1 [5], 1.03; in the test on PEO1 [6], 0.69; in the test with PEO1 [7] it was 0.87. Further, the CI in the test on PEO1 [8] worked out at 1.05; with PEO1 [9], 4.68; in the test on PEO1 [10], 29.58; with PEO1 [11], 287.79.
As to `CC(=O)O[C@H]1C(=O)[C@@]2(C)[C@H]([C@H](OC(=O)c3ccccc3)[C@]3(O)C[C@H](OC(=O)[C@H](O)[C@@H](NC(=O)c4ccccc4)c4ccccc4)C(C)=C1C3(C)C)[C@]1(OC(C)=O)CO[C@@H]1C[C@@H]2O` [PACLITAXEL], in the test on PEO1 [1], the IC50 came to 7 µM.

Source of the values: ChEMBL document CHEMBL4806965, “Nek6 kinase inhibitors useful for the treatment of solid tumors” (2019).
